Test results as given in article PMC11345841, “Exploring 2-Sulfonylpyrimidine Warheads as Acrylamide Surrogates for Targeted Covalent Inhibition: A BTK Story” (Journal of Medicinal Chemistry, 2024).
Read-outs that look alike come from different tables or passages of the source.

Tests used:
Assay in all cases: KINOMEscan ScanTK
Type in all cases: binding
TRKA = molecular target: T1, TRKA (Homo sapiens, UniProt P04629); conditions: TRKA
T1 construct: purchased Eurofins DiscoverX KINOMEscan (scanTK)

PYK2 = molecular target: T2, PYK2 (Homo sapiens, UniProt Q14289)
T2 construct: purchased Eurofins DiscoverX KINOMEscan (scanTK)

FLT3(N841I) = molecular target: T3, FLT3(N841I) (Homo sapiens, UniProt P36888, N841I)
T3 construct: purchased Eurofins DiscoverX KINOMEscan (scanTK)
T3 sequence (P36888 27-993 N841I): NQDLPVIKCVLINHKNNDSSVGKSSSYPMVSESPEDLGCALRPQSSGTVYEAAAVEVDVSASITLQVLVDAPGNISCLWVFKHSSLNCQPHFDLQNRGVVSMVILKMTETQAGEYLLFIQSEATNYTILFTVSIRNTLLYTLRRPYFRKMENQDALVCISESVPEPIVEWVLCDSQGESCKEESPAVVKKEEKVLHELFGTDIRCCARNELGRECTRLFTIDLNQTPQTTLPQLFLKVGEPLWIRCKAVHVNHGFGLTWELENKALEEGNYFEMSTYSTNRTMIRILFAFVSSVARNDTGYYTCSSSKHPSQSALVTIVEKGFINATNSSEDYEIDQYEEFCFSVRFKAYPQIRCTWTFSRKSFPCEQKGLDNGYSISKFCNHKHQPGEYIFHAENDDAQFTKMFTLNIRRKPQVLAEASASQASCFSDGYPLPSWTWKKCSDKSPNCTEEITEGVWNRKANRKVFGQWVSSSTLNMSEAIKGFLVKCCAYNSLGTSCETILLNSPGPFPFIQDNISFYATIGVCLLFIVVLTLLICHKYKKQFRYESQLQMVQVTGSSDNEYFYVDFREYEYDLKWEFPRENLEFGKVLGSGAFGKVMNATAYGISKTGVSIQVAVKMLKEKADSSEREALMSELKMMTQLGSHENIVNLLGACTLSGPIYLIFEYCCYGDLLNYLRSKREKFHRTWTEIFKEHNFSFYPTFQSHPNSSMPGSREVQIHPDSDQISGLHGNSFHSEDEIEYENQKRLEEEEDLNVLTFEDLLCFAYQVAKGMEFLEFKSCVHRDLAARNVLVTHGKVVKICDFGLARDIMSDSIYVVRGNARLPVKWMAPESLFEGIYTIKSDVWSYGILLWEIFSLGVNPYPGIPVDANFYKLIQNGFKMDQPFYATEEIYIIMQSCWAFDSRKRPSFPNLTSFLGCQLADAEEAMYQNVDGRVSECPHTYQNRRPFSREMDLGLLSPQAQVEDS

SRC = molecular target: T4, SRC (Homo sapiens, UniProt P12931)
T4 construct: purchased Eurofins DiscoverX KINOMEscan (scanTK)

BLK = molecular target: T5, BLK (Homo sapiens, UniProt P51451); conditions: BLK
T5 construct: purchased Eurofins DiscoverX KINOMEscan (scanTK)

CSF1R-autoinhibited = molecular target: T6, CSF1R-autoinhibited (Homo sapiens, UniProt P07333)
T6 construct: purchased Eurofins DiscoverX KINOMEscan (scanTK)
T6 sequence (P07333 539-972 limits assumed): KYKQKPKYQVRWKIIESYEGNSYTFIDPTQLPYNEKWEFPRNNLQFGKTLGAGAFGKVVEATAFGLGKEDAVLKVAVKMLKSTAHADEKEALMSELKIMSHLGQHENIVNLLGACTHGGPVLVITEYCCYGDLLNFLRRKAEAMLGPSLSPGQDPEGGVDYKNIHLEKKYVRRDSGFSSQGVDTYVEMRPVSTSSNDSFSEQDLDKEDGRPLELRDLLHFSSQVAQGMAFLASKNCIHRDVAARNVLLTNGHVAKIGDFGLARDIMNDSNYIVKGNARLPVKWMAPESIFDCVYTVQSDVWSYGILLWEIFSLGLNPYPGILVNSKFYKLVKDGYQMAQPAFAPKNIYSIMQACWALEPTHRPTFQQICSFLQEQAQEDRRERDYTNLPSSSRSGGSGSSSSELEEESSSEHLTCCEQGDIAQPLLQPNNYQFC

LYN = molecular target: T7, LYN (Homo sapiens, UniProt P07948)
T7 construct: purchased Eurofins DiscoverX KINOMEscan (scanTK)

[1] = molecular target: T8, ABL1(Q252H)-nonphosphorylated (Homo sapiens, UniProt P00519, Q252H)
T8 construct: purchased Eurofins DiscoverX KINOMEscan (scanTK)

ROS1 = molecular target: T9, ROS1 (Homo sapiens, UniProt P08922)
T9 construct: purchased Eurofins DiscoverX KINOMEscan (scanTK)

TNK2 = molecular target: T10, TNK2 (Homo sapiens, UniProt Q07912)
T10 construct: purchased Eurofins DiscoverX KINOMEscan (scanTK)

CSK = molecular target: T11, CSK (Homo sapiens, UniProt P41240)
T11 construct: purchased Eurofins DiscoverX KINOMEscan (scanTK)

[2] = molecular target: T12, JAK1(JH1domain-catalytic) (Homo sapiens, UniProt P23458)
T12 construct: JAK1(JH1domain-catalytic); purchased Eurofins DiscoverX KINOMEscan (scanTK)

ALK = molecular target: T13, ALK (Homo sapiens, UniProt Q9UM73)
T13 construct: purchased Eurofins DiscoverX KINOMEscan (scanTK)

RET(M918T) = molecular target: T14, RET(M918T) (Homo sapiens, UniProt P07949, M918T)
T14 construct: purchased Eurofins DiscoverX KINOMEscan (scanTK)

MET(M1250T) = molecular target: T15, MET(M1250T) (Homo sapiens, UniProt P08581, M1250T)
T15 construct: purchased Eurofins DiscoverX KINOMEscan (scanTK)

[3] = molecular target: T16, EGFR(L747-S752del, P753S) (Homo sapiens, UniProt P00533, DEL747-752/P753S)
T16 construct: purchased Eurofins DiscoverX KINOMEscan (scanTK)

KIT-autoinhibited = molecular target: T17, KIT-autoinhibited (Homo sapiens, UniProt P10721)
T17 construct: purchased Eurofins DiscoverX KINOMEscan (scanTK)

[4] = @1000nM, read-out: % difference (compound - Ib %Control)

T16 sequence (P00533 with tags, fused parts or gaps DEL747-752/P753S limits assumed): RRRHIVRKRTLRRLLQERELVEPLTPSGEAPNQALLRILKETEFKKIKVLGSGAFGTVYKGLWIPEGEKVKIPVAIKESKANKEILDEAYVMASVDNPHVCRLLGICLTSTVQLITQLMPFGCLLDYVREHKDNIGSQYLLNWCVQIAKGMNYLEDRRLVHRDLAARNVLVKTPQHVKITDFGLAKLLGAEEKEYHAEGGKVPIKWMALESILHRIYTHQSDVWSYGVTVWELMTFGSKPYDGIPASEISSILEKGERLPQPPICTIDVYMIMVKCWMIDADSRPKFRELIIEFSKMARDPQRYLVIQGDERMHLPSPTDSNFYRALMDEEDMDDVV
T12 sequence (P23458 875-1154 limits assumed): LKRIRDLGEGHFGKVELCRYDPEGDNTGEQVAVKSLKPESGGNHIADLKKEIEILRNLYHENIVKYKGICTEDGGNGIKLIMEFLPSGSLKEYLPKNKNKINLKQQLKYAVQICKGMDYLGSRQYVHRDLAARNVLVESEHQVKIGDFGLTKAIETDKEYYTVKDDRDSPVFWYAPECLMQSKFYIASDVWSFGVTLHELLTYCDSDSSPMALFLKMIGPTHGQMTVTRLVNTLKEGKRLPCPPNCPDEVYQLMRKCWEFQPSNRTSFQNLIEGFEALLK
T13 sequence (Q9UM73 19-1620): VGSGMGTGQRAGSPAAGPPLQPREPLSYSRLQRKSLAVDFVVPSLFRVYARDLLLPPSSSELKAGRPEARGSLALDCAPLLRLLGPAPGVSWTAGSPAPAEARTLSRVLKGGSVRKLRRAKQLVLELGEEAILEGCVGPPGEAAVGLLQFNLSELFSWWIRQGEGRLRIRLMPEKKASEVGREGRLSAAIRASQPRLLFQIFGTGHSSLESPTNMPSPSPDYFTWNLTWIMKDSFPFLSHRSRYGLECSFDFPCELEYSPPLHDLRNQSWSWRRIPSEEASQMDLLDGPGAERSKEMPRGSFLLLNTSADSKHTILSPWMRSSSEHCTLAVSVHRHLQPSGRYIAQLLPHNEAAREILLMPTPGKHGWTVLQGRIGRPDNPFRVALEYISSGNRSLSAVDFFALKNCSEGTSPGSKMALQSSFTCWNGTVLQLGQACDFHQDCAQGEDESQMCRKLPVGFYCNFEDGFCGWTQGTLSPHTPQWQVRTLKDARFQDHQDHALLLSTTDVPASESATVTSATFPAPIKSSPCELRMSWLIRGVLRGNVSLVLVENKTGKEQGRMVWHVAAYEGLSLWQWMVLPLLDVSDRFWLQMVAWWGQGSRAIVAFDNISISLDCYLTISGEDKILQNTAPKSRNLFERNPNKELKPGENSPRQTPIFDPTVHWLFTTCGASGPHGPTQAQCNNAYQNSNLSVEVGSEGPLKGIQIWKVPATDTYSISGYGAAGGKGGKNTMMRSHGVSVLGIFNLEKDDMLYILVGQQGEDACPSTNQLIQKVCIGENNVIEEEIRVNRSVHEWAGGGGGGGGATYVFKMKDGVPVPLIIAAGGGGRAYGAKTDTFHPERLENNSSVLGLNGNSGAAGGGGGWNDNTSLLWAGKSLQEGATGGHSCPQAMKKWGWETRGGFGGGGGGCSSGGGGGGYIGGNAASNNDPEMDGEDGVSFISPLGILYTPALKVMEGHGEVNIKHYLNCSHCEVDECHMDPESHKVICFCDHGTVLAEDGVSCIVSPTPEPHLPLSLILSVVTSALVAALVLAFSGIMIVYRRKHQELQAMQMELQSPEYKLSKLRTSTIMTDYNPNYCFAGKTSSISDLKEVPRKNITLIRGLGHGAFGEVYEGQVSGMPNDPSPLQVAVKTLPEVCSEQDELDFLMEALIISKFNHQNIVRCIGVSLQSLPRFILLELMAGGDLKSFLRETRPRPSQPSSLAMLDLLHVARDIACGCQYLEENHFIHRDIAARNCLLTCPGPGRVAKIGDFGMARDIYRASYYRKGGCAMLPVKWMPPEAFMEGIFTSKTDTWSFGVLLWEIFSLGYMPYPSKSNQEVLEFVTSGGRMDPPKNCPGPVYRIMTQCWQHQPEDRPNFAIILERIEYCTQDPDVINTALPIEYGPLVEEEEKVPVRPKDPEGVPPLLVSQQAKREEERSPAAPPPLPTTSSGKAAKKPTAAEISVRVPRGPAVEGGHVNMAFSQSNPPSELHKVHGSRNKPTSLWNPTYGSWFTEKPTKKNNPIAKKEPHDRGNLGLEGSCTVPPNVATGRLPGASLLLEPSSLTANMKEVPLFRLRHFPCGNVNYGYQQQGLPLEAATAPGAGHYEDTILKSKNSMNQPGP
T5 sequence (P51451 whole entry): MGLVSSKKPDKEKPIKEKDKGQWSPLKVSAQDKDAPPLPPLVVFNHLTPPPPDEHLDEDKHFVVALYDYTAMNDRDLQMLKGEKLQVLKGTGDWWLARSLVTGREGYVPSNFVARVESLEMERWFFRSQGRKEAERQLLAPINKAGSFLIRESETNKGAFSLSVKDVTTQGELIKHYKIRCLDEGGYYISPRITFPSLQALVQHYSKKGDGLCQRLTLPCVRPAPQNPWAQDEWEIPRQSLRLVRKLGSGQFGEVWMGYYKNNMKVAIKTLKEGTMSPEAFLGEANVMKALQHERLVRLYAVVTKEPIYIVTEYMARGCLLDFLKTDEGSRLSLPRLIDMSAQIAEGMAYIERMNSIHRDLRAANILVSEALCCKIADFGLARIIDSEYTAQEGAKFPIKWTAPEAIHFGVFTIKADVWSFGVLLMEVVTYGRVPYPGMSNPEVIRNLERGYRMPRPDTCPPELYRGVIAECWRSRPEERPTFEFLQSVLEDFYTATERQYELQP
T1 sequence (P04629 33-796): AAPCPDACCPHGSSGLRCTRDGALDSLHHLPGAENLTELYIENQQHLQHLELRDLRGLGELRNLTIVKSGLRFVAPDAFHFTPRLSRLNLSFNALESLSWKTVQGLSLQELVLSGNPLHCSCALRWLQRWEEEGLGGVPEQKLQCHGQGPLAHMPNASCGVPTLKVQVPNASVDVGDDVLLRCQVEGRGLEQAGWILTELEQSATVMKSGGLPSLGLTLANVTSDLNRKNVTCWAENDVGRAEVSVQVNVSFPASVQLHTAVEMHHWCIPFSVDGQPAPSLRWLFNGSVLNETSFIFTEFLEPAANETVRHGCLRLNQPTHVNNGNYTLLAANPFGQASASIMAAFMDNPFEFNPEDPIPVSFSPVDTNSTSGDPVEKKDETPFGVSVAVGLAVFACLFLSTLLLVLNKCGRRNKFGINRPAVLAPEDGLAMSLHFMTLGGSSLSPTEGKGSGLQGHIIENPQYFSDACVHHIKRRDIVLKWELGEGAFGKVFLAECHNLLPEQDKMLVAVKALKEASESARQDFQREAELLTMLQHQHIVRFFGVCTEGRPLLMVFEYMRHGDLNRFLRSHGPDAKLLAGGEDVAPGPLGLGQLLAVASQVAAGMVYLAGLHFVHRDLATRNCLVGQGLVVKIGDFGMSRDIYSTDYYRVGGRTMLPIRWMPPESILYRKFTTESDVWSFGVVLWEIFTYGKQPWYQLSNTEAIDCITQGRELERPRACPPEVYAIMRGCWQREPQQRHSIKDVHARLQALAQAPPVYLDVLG
T14 sequence (P07949 29-1114 M918T): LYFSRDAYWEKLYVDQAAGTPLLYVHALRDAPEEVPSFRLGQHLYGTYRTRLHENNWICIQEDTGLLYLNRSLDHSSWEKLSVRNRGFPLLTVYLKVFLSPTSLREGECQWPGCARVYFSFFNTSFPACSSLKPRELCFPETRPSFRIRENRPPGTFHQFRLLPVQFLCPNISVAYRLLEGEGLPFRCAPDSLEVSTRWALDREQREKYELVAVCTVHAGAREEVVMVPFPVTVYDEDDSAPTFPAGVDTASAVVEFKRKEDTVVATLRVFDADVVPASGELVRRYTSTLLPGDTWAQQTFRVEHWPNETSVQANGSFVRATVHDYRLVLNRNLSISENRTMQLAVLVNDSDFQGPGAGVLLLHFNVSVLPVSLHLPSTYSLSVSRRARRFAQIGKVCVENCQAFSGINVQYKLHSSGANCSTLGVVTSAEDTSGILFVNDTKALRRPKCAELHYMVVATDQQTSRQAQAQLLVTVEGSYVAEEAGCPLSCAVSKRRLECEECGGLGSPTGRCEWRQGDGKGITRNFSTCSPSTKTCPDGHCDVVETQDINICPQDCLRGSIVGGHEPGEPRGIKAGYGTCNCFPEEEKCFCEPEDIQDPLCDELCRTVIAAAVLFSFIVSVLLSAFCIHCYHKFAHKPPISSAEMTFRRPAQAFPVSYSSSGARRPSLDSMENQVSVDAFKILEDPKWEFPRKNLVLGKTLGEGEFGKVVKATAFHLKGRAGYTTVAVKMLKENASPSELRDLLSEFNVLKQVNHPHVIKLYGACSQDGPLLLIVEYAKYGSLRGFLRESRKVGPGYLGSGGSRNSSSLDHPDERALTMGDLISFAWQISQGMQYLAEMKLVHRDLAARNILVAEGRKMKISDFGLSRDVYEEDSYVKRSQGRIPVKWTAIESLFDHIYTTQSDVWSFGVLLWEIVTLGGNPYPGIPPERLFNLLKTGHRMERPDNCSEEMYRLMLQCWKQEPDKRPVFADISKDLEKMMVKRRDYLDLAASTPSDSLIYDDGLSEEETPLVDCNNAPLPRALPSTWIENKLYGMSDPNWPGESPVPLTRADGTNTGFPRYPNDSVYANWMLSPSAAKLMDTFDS

difference in % of control versus compound Ib at 1 µM (TRKA; @1000nM): 12%
remaining binding at 1 µM (TRKA; @1000nM, read-out: %Control): 97%
remaining binding at 1 µM (TRKA; read-out: %Control @1000nM): 97%
remaining binding at 1 µM (PYK2; @1000nM, read-out: %Control): 92%
remaining binding at 1 µM (PYK2; read-out: %Control @1000nM): 92%
difference in %Control versus compound Ib at 1 µM (FLT3(N841I); @1000nM): 40%
remaining binding at 1 µM (FLT3(N841I); @1000nM, read-out: %Control): 59%
remaining binding at 1 µM (FLT3(N841I); read-out: %Control @1000nM): 59%
remaining binding at 1 µM (SRC; @1000nM, read-out: %Control): 17%
remaining binding at 1 µM (SRC; read-out: %Control @1000nM): 17%
difference in %Control vs reference Ib at 1 µM (BLK; [4]): 0.05%
remaining binding at 1 µM (BLK; @1000nM, read-out: %Control): 0.1%
remaining binding at 1 µM (BLK; read-out: %Control @1000nM): 0.1%
difference in %Control versus compound Ib at 1 µM (CSF1R-autoinhibited; @1000nM): 11%
remaining binding at 1 µM (CSF1R-autoinhibited; @1000nM, read-out: %Control): 88%
remaining binding at 1 µM (CSF1R-autoinhibited; read-out: %Control @1000nM): 88%
remaining binding at 1 µM (LYN; @1000nM, read-out: %Control): 21%
remaining binding at 1 µM (LYN; read-out: %Control @1000nM): 21%
difference in %Control versus reference compound Ib at 1 µM ([1]; @1000nM): 25%
remaining binding at 1 µM ([1]; @1000nM, read-out: %Control): 38%
remaining binding at 1 µM ([1]; read-out: %Control @1000nM): 38%
%Control difference versus reference Ib at 1 µM (ROS1; [4]): -4%
remaining binding at 1 µM (ROS1; @1000nM, read-out: %Control): 93%
remaining binding at 1 µM (ROS1; read-out: %Control @1000nM): 93%
remaining binding at 1 µM (TNK2; @1000nM, read-out: %Control): 96%
remaining binding at 1 µM (TNK2; read-out: %Control @1000nM): 96%
difference in %Control from reference compound Ib at 1 µM (CSK; @1000nM): 2.1%
remaining binding at 1 µM (CSK; @1000nM, read-out: %Control): 6.6%
remaining binding at 1 µM (CSK; read-out: %Control @1000nM): 6.6%
difference in %Control versus compound Ib at 1 µM ([2]; @1000nM): 0%
remaining binding at 1 µM ([2]; @1000nM, read-out: %Control): 94%
remaining binding at 1 µM ([2]; read-out: %Control @1000nM): 94%
difference in %Control versus compound Ib at 1 µM (ALK; @1000nM): -14%
remaining binding at 1 µM (ALK; @1000nM, read-out: %Control): 80%
remaining binding at 1 µM (ALK; read-out: %Control @1000nM): 80%
remaining binding at 1 µM (RET(M918T); @1000nM, read-out: %Control): 53%
remaining binding at 1 µM (RET(M918T); read-out: %Control @1000nM): 53%
remaining binding at 1 µM (MET(M1250T); @1000nM, read-out: %Control): 88%
remaining binding at 1 µM (MET(M1250T); read-out: %Control @1000nM): 88%
difference in %Control versus compound Ib at 1 µM ([3]; @1000nM): 88.5%
remaining binding at 1 µM ([3]; @1000nM, read-out: %Control): 94%
remaining binding at 1 µM ([3]; read-out: %Control @1000nM): 94%
remaining binding at 1 µM (KIT-autoinhibited; @1000nM, read-out: %Control): 100%
remaining binding at 1 µM (KIT-autoinhibited; read-out: %Control @1000nM): 100%
Compound: Cc1cnc(S(C)(=O)=O)nc1N1CCCC(n2nc(-c3ccc(Oc4ccccc4)cc3)c3c(N)ncnc32)C1 (centres unmarked) [Compound 8a, 1-(1-(5-Methyl-2-(methylsulfonyl)pyrimidin-4-yl)piperidin-3-yl)-3-(4-phenoxyphenyl)-1H-pyrazolo[3,4-d]pyrimidin-4-amine]
